These molecules were tested against T1, Bcl-2-like protein 10 (Homo sapiens, UniProt Q9HD36) (assay: EC50 profiling of BCL2L10 inhibition in a biochemical TR3-derived FP format (AID 1243)).
T1 sequence (Q9HD36 whole entry): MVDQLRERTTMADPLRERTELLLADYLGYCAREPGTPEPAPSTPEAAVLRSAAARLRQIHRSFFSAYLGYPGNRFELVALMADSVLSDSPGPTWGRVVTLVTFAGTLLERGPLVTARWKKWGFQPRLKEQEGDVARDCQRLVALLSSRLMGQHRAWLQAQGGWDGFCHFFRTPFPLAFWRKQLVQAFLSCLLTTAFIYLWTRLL
An EC50 of 14.2 µM was found for Clc1ccc(C2CC(c3ccccc3)=Nc3ncnn32)cc1 (stereo unspecified) [7-(4-chlorophenyl)-5-phenyl-1,7-dihydro-[1,2,4]triazolo[1,5-a]pyrimidine] in this work.
An EC50 of 5.7 µM was found for O=C1C=CC(=O)C(C(C=NCc2ccccc2)[N+](=O)[O-])=C1 (stereo unspecified) [BIM-0048185.P001] in this work.
An EC50 of 6.24 µM was found for COc1ccccc1NC(=O)C1=C(C)N=C(SCC(=O)c2ccc(Br)cc2)C(C#N)C1c1ccco1 (stereo unspecified) [BIM-0025022.P001] in this work.
An EC50 of 9.64 µM was found for O=C(O)c1cccc(-c2ccc(CN=Nc3ccc([N+](=O)[O-])cn3)o2)c1 in this work.
An EC50 of 1.65 µM was found for C=c1c(C#N)c2[nH]c(N)c(C#N)c(C)c-2c1=Cc1ccc(-c2ccc(C(=O)O)c(Cl)c2)o1 in this work.
An EC50 of 23.8 µM was found for O=C1c2ccccc2C(O)C12N=Nc1n[nH]c(=S)n1N2 (stereo unspecified) [BIM-0026580.P001] in this work.
